Results from ChEMBL document CHEMBL2202954, “The effect of PLC-γ2 inhibitors on the growth of human tumour cells” (2012).

Legend:
Assay type in all cases: functional
[1] = system: T47D; test: Cytotoxicity against human T47D cells assessed as cellular growth at 10 uM by SRB assay
[2] = system: Hs-578T; test: Cytotoxicity against human Hs578T cells assessed as cellular growth at 10 uM by SRB assay
[3] = system: MDA-MB-231; test: Cytotoxicity against human MDA-MB-231 cells assessed as cellular growth at 10 uM by SRB assay
[4] = system: MCF7; test: Cytotoxicity against human MCF7 cells assessed as cellular growth at 10 uM by SRB assay
[5] = system: DU-145; test: Cytotoxicity against human DU145 cells assessed as cellular growth at 10 uM by SRB assay
[6] = system: RXF 393; test: Cytotoxicity against human RXF393 cells assessed as cellular growth at 10 uM by SRB assay
[7] = system: CAKI-1; test: Cytotoxicity against human Caki1 cells assessed as cellular growth at 10 uM by SRB assay
[8] = system: SK-OV-3; test: Cytotoxicity against human SKOV3 cells assessed as cellular growth at 10 uM by SRB assay
[9] = Cytotoxicity against human NCI-ADR-RES cells assessed as cellular growth at 10 uM by SRB assay
[10] = system: SK-MEL-5; test: Cytotoxicity against human SK-MEL-5 cells assessed as cellular growth at 10 uM by SRB assay
[11] = system: SK-MEL-28; test: Cytotoxicity against human SK-MEL-28 cells assessed as cellular growth at 10 uM by SRB assay
[12] = system: M14; test: Cytotoxicity against human M14 cells assessed as cellular growth at 10 uM by SRB assay
[13] = system: SF-539; test: Cytotoxicity against human SF539 cells assessed as cellular growth at 10 uM by SRB assay
[14] = system: SF-295; test: Cytotoxicity against human SF295 cells assessed as cellular growth at 10 uM by SRB assay
[15] = system: HCT-116; test: Cytotoxicity against human HCT116 cells assessed as cellular growth at 10 uM by SRB assay
[16] = system: HCC 2998; test: Cytotoxicity against human HCC2998 cells assessed as cellular growth at 10 uM by SRB assay
[17] = system: NCI-H23; test: Cytotoxicity against human NCI-H23 cells assessed as cellular growth at 10 uM by SRB assay
[18] = system: EKVX; test: Cytotoxicity against human EKVX cells assessed as cellular growth at 10 uM by SRB assay
[19] = system: MOLT-4; test: Cytotoxicity against human MOLT4 cells assessed as cellular growth at 10 uM by SRB assay
[20] = system: CCRF-CEM; test: Cytotoxicity against human CCRF-CEM cells assessed as cellular growth at 10 uM by SRB assay

Row | Structure (SMILES) | Activity [1] | Activity [2] | Activity [3] | Activity [4] | Activity [5] | Activity [6] | Activity [7] | Activity [8] | Activity [9] | Activity [10] | Activity [11] | Activity [12] | Activity [13] | Activity [14] | Activity [15] | Activity [16] | Activity [17] | Activity [18] | Activity [19] | Activity [20]
1 | Cc1cc(C)c(NC(=O)c2sc3nc4c(cc3c2N)C(=O)CC(C)(C)C4)c(C)c1 | 88.69% | 108.69% | 115.09% | 99.03% | 127.81% | 105.64% | 82.45% | 116.6% | 95.48% | 89.79% | 107.04% | 107.36% | 102.77% | 81.11% | 99.79% | 105.78% | 94.31% | 92.06% | 100.05% | 90.08%
2 | COc1ccc2[nH]c(C(=O)NCc3ccccc3)cc2c1 | 85.87% | 112.57% | 91.31% | 83.2% | 111.13% | 101.97% | 87.15% | 108.16% | 102.25% | 97.92% | 110.55% | 104.15% | 101.58% | 131.65% | 94.88% | 104.4% | 89.11% | 78.14% | 83.12% | 85.19%
3 | CC1(C)CC(=O)c2cc3c(N)c(C(=O)NCc4ccccc4)sc3nc2C1 | 100.55% | 123.14% | 101.13% | 87.02% | 113.73% | 93.07% | 110.35% | 111.17% | 93.37% | 91.1% | 102.38% | 98.42% | 96.57% | 100.81% | 103.66% | 101.88% | 97.31% | 108.91% | 124.23% | 99.55%
4 | O=C(NCCc1ccccc1)c1[nH]c2ccccc2c1Cl | 71.67% | 97.21% | 80.08% | 83.19% | 91.9% | 103.44% | 78.12% | 91.3% | 87.28% | 82.39% | 106.79% | 106.45% | 102.52% | 82.28% | 87.15% | 101.44% | 84.26% | 57.12% | 70.04% | 86.13%
5 | O=C(NCCc1ccc(Cl)cc1)c1[nH]c2ccccc2c1Cl | 81.02% | 94.53% | 95.77% | 78.35% | 101.11% | 113.7% | 96.12% | 86.84% | 100.24% | 95.47% | 109.77% | 98.43% | 101.07% | 98.05% | 98.39% | 102.32% | 92.75% | 91.27% | 77.08% | 108.31%
6 | O=C(NCc1ccc(Cl)cc1)c1[nH]c2ccccc2c1Cl | 96.29% | 100.36% | 106.69% | 128.42% | 105.86% | 104.01% | 91.63% | 98.27% | 95.94% | 95.97% | 109.03% | 117.92% | 118.51% | 94.4% | 103.25% | 104.03% | 95.58% | 83.18% | 88.19% | 93.68%
7 | Cc1ccc(CNC(=O)c2[nH]c3ccccc3c2Cl)cc1 | 84.33% | 95.86% | 112.08% | 98.84% | 97.89% | 109.98% | 90.46% | 92.6% | 92.34% | 99.25% | 113.18% | 115.09% | 110.44% | 94.21% | 107.58% | 101.22% | 95.25% | 91.13% | 91.47% | 99.93%
8 | CC1(C)CCc2cc(-c3ccn(S(=O)(=O)c4ccc(Cl)cc4)n3)ccc2O1 | 54.12% | 99.49% | 76.35% | 71.27% | 88.3% | 89.02% | 64.29% | 91.35% | 69.31% | 47.2% | 94.67% | 80.11% | 101.35% | 78.68% | 61.1% | 94.3% | 65.48% | 54.5% | 65.38% | 64.16%
9 | CC1(C)CCc2cc(-c3ccn(S(=O)(=O)c4cccc(C(F)(F)F)c4)n3)ccc2O1 | 66.31% | 107.85% | 95.04% | 87.68% | 98.46% | 97.2% | 105.83% | 96.16% | 88.98% | 69.29% | 105.56% | 97.31% | 116.68% | 108.32% | 74.24% | 104.44% | 81.53% | 70.44% | 66.45% | 74.11%
10 | Cc1cccc(-c2nc(-c3cccs3)no2)c1 | 53.59% | 81.63% | 76.61% | 39.04% | 120% | 126.03% | 77.92% | 94.86% | 95.15% | 82.84% | 109.6% | 102.43% | 115.88% | 91.28% | 96.5% | 80.51% | 89.36% | 84.59% | 96.35% | 91.12%
11 | Clc1ccc(-c2nc(-c3cccs3)no2)cc1 | 66.67% | 136.36% | 81.39% | 36.78% | 119.78% | 112.7% | 102.58% | 106.04% | 106.94% | 90.07% | 115.07% | 105.16% | 92.56% | 92.23% | 92.37% | 32.91% | 92.82% | 85.36% | 86.35% | 78.29%
12 | N#Cc1ccc(NC(=O)c2sc3nc4c(cc3c2N)C(=O)CCC4)cc1 | 95.85% | 110.8% | 109.01% | 97.4% | 94.94% | 119.14% | 93.27% | 106.21% | 105.72% | 92.55% | 105.89% | 105.98% | 99.77% | 82.4% | 107.92% | 99.15% | 106.13% | 93.58% | 114.77% | 99.79%
13 | CC1(C)CC(=O)c2cc3c(N)c(C(=O)Nc4ccccc4Cl)sc3nc2C1 | 99.6% | 112.91% | 116.03% | 111.34% | 109.85% | 117.18% | 132.4% | 107.93% | 115.33% | 100.73% | 116.26% | 118.29% | 111.8% | 96.7% | 113.5% | 107.92% | 108.01% | 108.8% | 104.6% | 97.05%
14 | Nc1c(C(=O)Nc2ccc(Cl)c(Cl)c2)sc2nc(-c3cccs3)ccc12 | 85.21% | 129.34% | 84.38% | 87.77% | 91.96% | 92.71% | 95.41% | 105.1% | 75.02% | 90.4% | 97.42% | 87.97% | 79.24% | 106.17% | 75.19% | 98.35% | 68.82% | 93.39% | 83.49% | 82.99%
15 | Cc1ccc(NC(=O)c2sc3nc(-c4cccs4)ccc3c2N)cc1C | 96.25% | 110.72% | 116.18% | 109.1% | 103.5% | 123.31% | 131.91% | 112.05% | 102.93% | 98.52% | 113.95% | 114.64% | 118.53% | 110.27% | 106.03% | 105.35% | 111.92% | 103.49% | 80.3% | 97.34%
16 | Cc1ccc(NC(=O)c2sc3nc4c(cc3c2N)C(=O)CCC4)cc1Cl | 105.09% | 112.53% | 113.04% | 102.05% | 108.78% | 117.2% | 85.93% | 113.94% | 103.82% | 101.61% | 108.49% | 121.85% | 102.38% | 79.97% | 105.04% | 102.57% | 100.21% | 86.19% | 107.73% | 104.3%
